Where two headings read alike, the source gives them in different places.
Experiments:
MMP13 in SW1353 cells = experiment: OSM/IL-1β signaling assay (MMP13 levels in SW1353 cells); assay type: cell-based; conditions: Homo sapiens; SW1353 cells, OSM and IL-1β triggered, MMP13 levels 48 hours after triggering; read-out: MMP13 EC50;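 note: secreted MMP13 captured by antibody, activated with APMA and its activity read by fluorescence, inhibition scaled between vehicle-treated triggered wells (0%) and untriggered wells (100%)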
[1] = Microsomal stability, human liver microsomes; assay type: in vitro ADME; conditions: percentage of compound remaining after 60 minutes, 3 μM compound
Procedure, shortened: (§1)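 Compound was incubated with liver microsomes plus an NADP+/glucose-6-phosphate/G6PDH/MgCl2 regenerating system at 37°C for 1 h. Reactions were stopped 1:1 with MeOH or ACN and analysed by LCMS.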

[2] = Microsomal stability, rat liver microsomes; assay type: in vitro ADME; conditions: percentage of compound remaining after 60 minutes, 3 μM compound
Procedure, shortened: as §1

[3] = tested on: JAK-STAT signalling in HeLa cells; experiment: JAK-STAT signalling assay (OSM-triggered pSTAT1(2)-luciferase reporter in HeLa cells); assay type: cell-based; conditions: Homo sapiens; HeLa cells, OSM-triggered pSTAT1(2)-luciferase reporter; read-out: STAT signalling EC50
Procedure, shortened: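 HeLa cells transiently transfected with pSTAT1(2)-luciferase reporter plus LacZ internal control, incubated overnight at 37 °C, 10% CO2, then OSM-stimulated with compound. Luciferase read by Steadylite luminescence and normalised to β-galactosidase (ONPG); percent inhibition from controls, EC50 from dose-response.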

TNF-alpha release = experiment: Septic shock model (LPS-induced TNF release); assay type: in vivo, mouse; conditions: 30 mg/kg po, BALB/cJ mice, LPS ip; statistically significant
Protocol: Injection of lipopolysaccharide (LPS) induces a rapid release of soluble tumour necrosis factor (TNF-alpha) into the periphery. This model is used to analyse prospective blockers of TNF release in vivo.
Six BALB/cJ female mice (20 g) per group were treated at the intended dosing once, po. Thirty minutes later, LPS (15 μg/kg; E. Coli serotype 0111:B4) was injected ip. Ninety minutes later, mice were euthanized and blood was collected. Circulating TNF alpha levels were determined using commercially available ELISA kits. Dexamethasone (5 μg/kg) was used as a reference anti-inflammatory compound. Selected compounds are tested at one or multiple doses, e.g. 3 and/or 10 and/or 30 mg/kg, po.

[4] = target: Recombinant human TYK2 catalytic domain (Homo sapiens (Human), UniProt P29597); experiment: TYK2 inhibition assay; assay type: biochemical; conditions: semi-quantitative score
Protocol: After 90 min at 30° C., reactions were stopped by adding of 25 μL/well of 150 mM phosphoric acid. […] Plates were washed 6 times with 300 μL per well of a 75 mM phosphoric acid solution and the bottom of the plates was sealed. 40 μL/well of Microscint-20 was added, the top of the plates was sealed and readout was performed using the Topcount (Perkin Elmer). Kinase activity was calculated by subtracting counts per minute (cpm) obtained in the presence of a positive control inhibitor (10 μM staurosporine) from cpm obtained in the presence of vehicle. The ability of a test compound to inhibit this activity was determined as: Percentage inhibition=((cpm determined for sample with test compound present−cpm determined for sample with positive control inhibitor) divided by (cpm determined in the presence of vehicle−cpm determined for sample with positive control inhibitor))*100%.
Dose dilution series were prepared for the compounds enabling the testing of dose-response effects in the TYK2 assay and the calculation of the IC50 for each compound.

[5] = target: Recombinant human JAK2 catalytic domain (Homo sapiens (Human), UniProt O60674); experiment: JAK2 inhibition assay; assay type: biochemical; conditions: semi-quantitative score
Procedure, shortened: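 Radiometric kinase reactions ran for 90 min at 30 °C and were stopped with phosphoric acid, then washed and counted by scintillation. Percent inhibition was set relative to vehicle and to 10 μM staurosporine background. IC50 was derived from dose-dilution series.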

[6] = Caco2 permeability (bi-directional); assay type: in vitro ADME, human; conditions: human, pH 7.4; for Papp A→B at 1 h, 10 µM: Caco-2, apical to basolateral, read-out: Papp (A2B); for efflux ratio at 1 h, 10 µM: Caco-2, ratio of PappB>A/PappA>B
Procedure, shortened: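 Bidirectional transport across Caco-2 monolayers was run for 1 h at 37 °C with shaking, with 50 μM Lucifer Yellow in the donor to check monolayer integrity (acceptance ≤100 nm/s). Apical and basal compound levels were measured by LC-MS/MS, and efflux ratio was taken as PappB>A/PappA>B.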

[7] = target: Recombinant human JAK1 catalytic domain (Homo sapiens (Human), UniProt P23458); experiment: JAK1 inhibition assay; assay type: biochemical
Procedure, shortened: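 Radiometric assay read by scintillation counting after phosphoric-acid washes. Percent inhibition calculated from cpm relative to vehicle and 10 μM staurosporine control. IC50 derived from compound dose-dilution series.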

[8] = target: Recombinant human JAK3 catalytic domain (Homo sapiens (Human), UniProt P52333); experiment: JAK3 inhibition assay; assay type: biochemical; conditions: semi-quantitative score
Recombinant human JAK3 catalytic domain, sequence (P52333 781-1124): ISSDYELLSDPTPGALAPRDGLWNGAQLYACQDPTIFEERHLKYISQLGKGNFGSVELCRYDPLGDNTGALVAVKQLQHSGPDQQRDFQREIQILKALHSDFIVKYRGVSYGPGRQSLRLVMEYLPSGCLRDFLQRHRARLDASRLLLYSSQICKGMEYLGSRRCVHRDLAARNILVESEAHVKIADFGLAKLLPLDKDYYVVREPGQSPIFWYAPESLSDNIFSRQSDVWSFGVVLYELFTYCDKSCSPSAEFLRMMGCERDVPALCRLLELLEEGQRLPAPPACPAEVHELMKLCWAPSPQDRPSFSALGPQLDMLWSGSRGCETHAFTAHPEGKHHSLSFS

Recombinant human JAK2 catalytic domain, sequence (O60674 808-1132): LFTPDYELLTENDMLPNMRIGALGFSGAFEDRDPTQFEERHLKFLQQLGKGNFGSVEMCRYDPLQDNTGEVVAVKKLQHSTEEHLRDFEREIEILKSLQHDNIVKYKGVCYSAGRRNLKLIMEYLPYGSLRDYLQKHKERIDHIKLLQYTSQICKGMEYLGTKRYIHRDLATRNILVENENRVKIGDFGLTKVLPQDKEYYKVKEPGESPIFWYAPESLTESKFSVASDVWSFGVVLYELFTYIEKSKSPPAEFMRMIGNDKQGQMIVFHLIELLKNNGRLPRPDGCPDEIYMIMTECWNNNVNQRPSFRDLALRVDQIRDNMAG
Recombinant human TYK2 catalytic domain, sequence (P29597 871-1187): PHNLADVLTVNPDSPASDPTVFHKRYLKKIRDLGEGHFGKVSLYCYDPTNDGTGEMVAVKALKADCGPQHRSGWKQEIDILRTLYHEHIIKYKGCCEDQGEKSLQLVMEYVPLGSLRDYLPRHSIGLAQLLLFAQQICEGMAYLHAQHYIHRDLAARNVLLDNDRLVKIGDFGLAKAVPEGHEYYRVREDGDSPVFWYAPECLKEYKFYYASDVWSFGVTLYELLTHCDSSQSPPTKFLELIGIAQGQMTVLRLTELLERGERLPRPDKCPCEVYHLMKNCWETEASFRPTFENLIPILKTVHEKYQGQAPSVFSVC
Recombinant human JAK1 catalytic domain, sequence (P23458 850-1154): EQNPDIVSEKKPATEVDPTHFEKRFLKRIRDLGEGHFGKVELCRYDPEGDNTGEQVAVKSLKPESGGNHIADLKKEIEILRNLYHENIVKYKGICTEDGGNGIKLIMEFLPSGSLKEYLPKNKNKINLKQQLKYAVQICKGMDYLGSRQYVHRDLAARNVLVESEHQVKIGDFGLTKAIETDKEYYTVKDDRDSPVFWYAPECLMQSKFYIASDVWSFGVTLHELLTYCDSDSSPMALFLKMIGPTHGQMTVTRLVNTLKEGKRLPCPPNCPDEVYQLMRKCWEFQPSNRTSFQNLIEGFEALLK

SMILES	EC50 (MMP13 in SW1353 cells) [nM]	Microsomal Stability Human (%) [1]	Microsomal Stability Rat (%) [2]	EC50 [3] [nM]	reduction in the TNF release (TNF-alpha release) [%]	IC50 [4] [nM]	IC50 [5] [nM]	Papp A→B at 1 h, 10 µM [6] [×10⁻⁶ cm/s]	efflux ratio at 1 h, 10 µM [6]	IC50 ([7]; semi-quantitative score) [nM]	IC50 [8] [nM]	IC50 [7] [nM]
O=C(Nc1nc2cccc(-c3ccc(OCc4ccccn4)cc3)n2n1)C1CC1 [Compound 37, N-(5-(4-(pyridin-2-ylmethoxy)phenyl)-[1,2,4]triazolo[1,5-a]pyridin-2-yl)cyclopropanecarboxamide]	> 1000	*** (*** 51-75)	*** (*** 51-75)	501 to 1000	> 50	–	–	–	–	–	–	–
Cn1ccc(COc2ccc(-c3cccc4nc(NC(=O)C5CC5)nn34)cc2)n1 [Compound 48]	> 1000	*** (*** 51-75)	*** (*** 51-75)	> 1000	–	> 1000	101 to 500	28.8	1	< 100	> 1000	–
Cc1n[nH]c(C)c1CCOc1ccc(-c2cccc3nc(NC(=O)C4CC4)nn23)cc1 [Compound 51]	> 1000	* (* 0-25)	* (* 0-25)	101 to 500	–	501 to 1000	< 100	10.9	3.64	< 100	501 to 1000	–
O=C(CCc1ccccc1)Nc1ccc(-c2cccc3nc(NC(=O)C4CC4)nn23)cc1 [Compound 109, N-(5-(4-(3-phenylpropanamido)phenyl)-[1,2,4]triazolo[1,5-a]pyridin-2-yl)cyclopropanecarboxamide]	501 to 1000	* (* 0-25)	* (* 0-25)	501 to 1000	–	> 1000	< 100	19	2.5	< 100	501 to 1000	–
O=C(NCCc1ccccc1)c1ccc(-c2cccc3nc(NC(=O)C4CC4)nn23)c(F)c1 [Compound 111, 4-(2-(cyclopropanecarboxamido)-[1,2,4]triazolo[1,5-a]pyridin-5-yl)-3-fluoro-N-phenethylbenzamide]	> 1000	** (** 26-50)	** (** 26-50)	501 to 1000	–	> 1000	101 to 500	8.23	2.9	< 100	501 to 1000	–
O=C(Nc1nc2cccc(-c3ccc(C(=O)N4CCC(C(F)(F)F)CC4)cc3)n2n1)C1CC1 [Compound 148, N-(5-(4-(4-(trifluoromethyl)piperidine-1-carbonyl)phenyl)-[1,2,4]triazolo[1,5-a]pyridin-2-yl)cyclopropanecarboxamide]	> 1000	*** (*** 51-75)	** (** 26-50)	> 1000	> 50	–	–	–	–	< 100	–	–
CC(=O)Nc1nc2cccc(-c3ccc(OCc4ccccc4)cc3)n2n1 [Compound 163, N-(5-(4-(benzyloxy)phenyl)-[1,2,4]triazolo[1,5-a]pyridin-2-yl)acetamide]	> 1000	*** (*** 51-75)	** (** 26-50)	> 1000	–	> 1000	< 100	–	0.85	–	101 to 500	< 100
O=C(Nc1nc2cccc(-c3ccc(C(=O)N4CCC(F)(F)C4)cc3)n2n1)C1CC1 [Compound 271, Cyclopropanecarboxylic acid (5-[4-(3,3-difluoro-pyrrolidine-1-carbonyl)-phenyl]-[1,2,4]triazolo[1,5-a]pyridin-2-yl}-amide]	501 to 1000	**** (**** 76-100)	**** (**** 76-100)	101 to 500	–	< 100	< 100	4	13	< 100	101 to 500	–
O=C(Nc1nc2cccc(-c3ccc(CNc4ccon4)cc3)n2n1)C1CC1 [Compound 302, Cyclopropanecarboxylic acid {5-[4-(isoxazol-3-ylaminomethyl)-phenyl]-[1,2,4]triazolo[1,5-a]pyridin-2-yl}-amide]	> 1000	*** (*** 51-75)	*** (*** 51-75)	101 to 500	–	< 100	< 100	8.45	5.98	< 100	101 to 500	–
NC(=O)c1ccccc1NCc1ccc(-c2cccc3nc(NC(=O)C4CC4)nn23)cc1 [Compound 306, 2-{4-[2-(Cyclopropanecarbonyl-amino)-[1,2,4]triazolo[1,5-a]pyridin-5-yl]-benzylamino}-benzamide]	501 to 1000	*** (*** 51-75)	** (** 26-50)	101 to 500	–	< 100	< 100	6.55	6.55	< 100	< 100	–
O=C(Nc1nc2cccc(-c3ccc(CC(=O)N4CC(F)(F)C4)cc3)n2n1)C1CC1 [Compound 317, Cyclopropanecarboxylic acid (5-{4-[2-(3,3-difluoro-azetidin-1-yl)-2-oxo-ethyl]-phenyl}-[1,2,4]triazolo[1,5-a]pyridin-2-yl)-amide]	> 1000	**** (**** 76-100)	*** (*** 51-75)	501 to 1000	–	101 to 500	< 100	4.3	10.1	< 100	> 1000	–
